Literature values as cited in US12622947B2, “Pharmaceutical composition for treating levodopa-induced dyskinesia or for suppressing progression thereof” (PEPTRON, INC., priority 2019, dated 2026).

Assays:
[1] = compared to GLP-1-Tf (Martin et al., 2012)
MPTP mouse model = details: given daily for 7 days after treatment (Liu et al., 2015)
[2] = in vivo

Substance: Exendin-4
- rotarod performance [1]: improve rotarod performance
- neuro-protection (MPTP mouse model): not effective
- crossing the BBB / entry into the brain from blood [2]: enter the brain from blood although its entry speed is limited
